The record followed here is PMC9516332 (Frontiers in Oncology, 2022).

Like-named read-outs stand apart in the source and are kept apart here.

What all share (assay): Kinase panel profiling at 1 µmol/L (MSA or IMAP), percentage inhibition
What all share (format): biochemical

The target in experiment [1] is panel of 255 wild-type kinases (Homo sapiens, UniProt O14578). The settings on record: kinase CRIK; 1 µmol/L single concentration; read-out: %-inhibition at 1 µmol/L, CRIK.
The target in experiment [2] is T1, panel of 255 wild-type kinases (Homo sapiens, UniProt P54762).
T1 sequence (P54762 18-984): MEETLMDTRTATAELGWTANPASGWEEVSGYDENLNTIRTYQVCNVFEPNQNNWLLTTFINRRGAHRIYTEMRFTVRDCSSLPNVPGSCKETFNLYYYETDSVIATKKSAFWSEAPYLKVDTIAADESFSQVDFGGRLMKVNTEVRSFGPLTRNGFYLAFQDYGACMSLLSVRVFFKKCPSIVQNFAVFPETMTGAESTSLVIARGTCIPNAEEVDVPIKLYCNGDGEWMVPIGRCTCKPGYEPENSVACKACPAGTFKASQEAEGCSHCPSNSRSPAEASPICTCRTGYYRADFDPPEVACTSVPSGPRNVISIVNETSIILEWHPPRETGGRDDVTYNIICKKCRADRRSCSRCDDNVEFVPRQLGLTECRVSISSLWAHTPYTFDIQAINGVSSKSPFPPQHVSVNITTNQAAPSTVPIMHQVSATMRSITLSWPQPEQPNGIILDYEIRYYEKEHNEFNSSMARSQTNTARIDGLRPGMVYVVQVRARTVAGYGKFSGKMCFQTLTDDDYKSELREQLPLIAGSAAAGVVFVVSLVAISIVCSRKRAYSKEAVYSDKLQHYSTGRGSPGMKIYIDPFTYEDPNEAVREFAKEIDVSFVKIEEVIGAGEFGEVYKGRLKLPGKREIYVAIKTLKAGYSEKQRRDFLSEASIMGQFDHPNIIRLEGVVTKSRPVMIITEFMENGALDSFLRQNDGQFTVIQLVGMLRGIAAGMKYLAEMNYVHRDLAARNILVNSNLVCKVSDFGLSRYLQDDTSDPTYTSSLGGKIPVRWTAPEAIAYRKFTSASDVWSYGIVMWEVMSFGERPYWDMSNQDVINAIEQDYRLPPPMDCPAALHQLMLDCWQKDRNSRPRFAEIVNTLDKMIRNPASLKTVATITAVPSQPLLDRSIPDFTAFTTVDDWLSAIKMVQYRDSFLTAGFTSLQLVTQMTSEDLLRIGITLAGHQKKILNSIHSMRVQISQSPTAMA
To be noted: kinase EPHB1; 1 µmol/L single concentration; read-out: %-inhibition at 1 µmol/L, EPHB1.

In experiment [3] the target is panel of 255 wild-type kinases (Homo sapiens, UniProt P51617). To be noted: kinase IRAK1; 1 µmol/L single concentration; read-out: %-inhibition at 1 µmol/L, IRAK1.
Experiment [4] deals with T2, panel of 255 wild-type kinases (Homo sapiens, UniProt P43403).
T2 sequence (P43403 1-619): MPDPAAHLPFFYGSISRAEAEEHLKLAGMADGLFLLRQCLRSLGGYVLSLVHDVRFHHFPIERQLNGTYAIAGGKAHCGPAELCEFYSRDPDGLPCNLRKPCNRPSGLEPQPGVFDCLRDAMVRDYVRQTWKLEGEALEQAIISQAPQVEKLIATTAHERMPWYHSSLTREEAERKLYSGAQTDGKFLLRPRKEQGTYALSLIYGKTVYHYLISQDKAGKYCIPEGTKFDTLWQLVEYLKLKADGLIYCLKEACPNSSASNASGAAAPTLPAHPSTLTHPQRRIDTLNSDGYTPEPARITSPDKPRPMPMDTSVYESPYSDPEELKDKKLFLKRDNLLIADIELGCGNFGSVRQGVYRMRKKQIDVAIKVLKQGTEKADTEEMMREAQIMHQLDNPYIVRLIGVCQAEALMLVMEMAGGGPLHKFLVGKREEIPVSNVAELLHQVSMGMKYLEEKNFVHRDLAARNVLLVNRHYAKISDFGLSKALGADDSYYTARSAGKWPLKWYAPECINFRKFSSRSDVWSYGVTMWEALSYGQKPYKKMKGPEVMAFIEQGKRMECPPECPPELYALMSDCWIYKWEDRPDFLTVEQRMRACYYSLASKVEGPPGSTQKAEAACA
To be noted: kinase ZAP70; 1 µmol/L single concentration; read-out: %-inhibition at 1 µmol/L, ZAP70.

Experiment [5] has as its target panel of 255 wild-type kinases (Homo sapiens, UniProt Q9Y463). To be noted: kinase DYRK1B; 1 µmol/L single concentration; read-out: %-inhibition at 1 µmol/L, DYRK1B.
Experiment [6] addresses panel of 255 wild-type kinases (Homo sapiens, UniProt Q15349). The settings on record: kinase RSK3; 1 µmol/L single concentration; read-out: %-inhibition at 1 µmol/L, RSK3.
The target in experiment [7] is T3, panel of 255 wild-type kinases (Homo sapiens, UniProt P42680).
T3 sequence (P42680 1-631): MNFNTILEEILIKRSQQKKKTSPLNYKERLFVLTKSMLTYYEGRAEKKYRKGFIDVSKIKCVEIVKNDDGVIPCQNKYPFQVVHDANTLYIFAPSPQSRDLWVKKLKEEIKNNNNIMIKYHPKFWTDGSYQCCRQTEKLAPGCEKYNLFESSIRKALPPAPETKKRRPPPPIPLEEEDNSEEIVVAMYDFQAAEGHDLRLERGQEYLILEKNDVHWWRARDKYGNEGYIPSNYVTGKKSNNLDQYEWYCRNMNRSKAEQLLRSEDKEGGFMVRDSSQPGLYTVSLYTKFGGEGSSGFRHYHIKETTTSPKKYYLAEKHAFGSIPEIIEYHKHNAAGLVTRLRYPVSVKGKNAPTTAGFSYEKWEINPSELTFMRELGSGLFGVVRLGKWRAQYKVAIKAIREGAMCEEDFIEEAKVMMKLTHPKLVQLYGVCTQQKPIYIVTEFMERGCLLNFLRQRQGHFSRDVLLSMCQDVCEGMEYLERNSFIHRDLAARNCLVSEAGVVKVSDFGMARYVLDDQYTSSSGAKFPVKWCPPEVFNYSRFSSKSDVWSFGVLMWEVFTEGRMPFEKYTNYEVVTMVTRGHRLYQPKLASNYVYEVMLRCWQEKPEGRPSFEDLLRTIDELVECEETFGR
The settings on record: read-out: %-inhibition at 1 µmol/L, TEC.

Experiment [8] addresses panel of 255 wild-type kinases (Homo sapiens, UniProt Q9UPE1). To be noted: MSSK1; 1 µmol/L single concentration; read-out: %-inhibition, MSSK1.
Experiment [9] concerns the target panel of 255 wild-type kinases (Homo sapiens, UniProt O00311). The settings on record: CDC7/ASK kinase assay; 1 µmol/L single concentration; read-out: %-inhibition CDC7/ASK.
[10] abbreviates: kinase TEC, 1 µmol/L single concentration.

In the case of `O=C(Nc1cnn2ccc(N3CCC[C@@H]3c3cc(F)ccc3F)nc12)N1CC[C@H](O)C1` [larotrectinib], the inhibition at 1 µM in experiment [1] was -4.22%; in experiment [2], -0.531%; in experiment [3], -0.211%; in experiment [4] it was 4.69%; in experiment [5], 6%; in [6], -10%. Besides, the inhibition at 1 µM was 1.59% in experiment [7] (setting [10]), -1.58% in experiment [8] and -3.24% in [9].
As for `C[C@H]1Oc2cc(cnc2N)-c2c(nn(C)c2C#N)CN(C)C(=O)c2ccc(F)cc21` [lorlatinib], the inhibition at 1 µM is -1.22% in experiment [1]; 68% in experiment [2]; 10% in experiment [3]; 6% in experiment [4]; -2.8% in experiment [5]; 2.53% in experiment [6]. The inhibition at 1 µM is 3% in [7] (setting [10]), 33% in experiment [8] and -2% in experiment [9].
Take `CCN1C(=O)N(c2c(F)c(OC)cc(OC)c2F)Cc2cnc3[nH]c(CN4CCOCC4)cc3c21` [pemigatinib]: the inhibition at 1 µM in [1] is -4.34%; in experiment [2], -3%; in experiment [3], -5.31%; in experiment [4], 2%; in experiment [5], 6%; in [6], -7.51%. For the same compound, the inhibition at 1 µM in experiment [7] (setting [10]) is -1.55%; in experiment [8], -7%; in experiment [9], -3.54%.
On to `FC(F)(F)c1ccc(CNc2ccc(Cc3c[nH]c4ncc(Cl)cc34)cn2)cn1` [pexidartinib], for which the inhibition at 1 µM in experiment [1] was -1.09%; in experiment [2], 11%; in experiment [3], -5%; in experiment [4], -7%; in experiment [5], 4.37%; in experiment [6], 42%. Also, the figures for the inhibition at 1 µM in experiment [7] (setting [10]), in [8] and in experiment [9] were -0.0585%, -4% and 0.521%, respectively.
For `CO[C@]1(C(=O)N[C@@H](C)c2ccc(-n3cc(F)cn3)nc2)CC[C@H](c2nc(C)cc(Nc3cc(C)[nH]n3)n2)CC1` [pralsetinib], the inhibition at 1 µM in [1] is -0.417%; in [2], 58%; in experiment [3] it was 9%; in experiment [4], 9%; in experiment [5], -12%; in experiment [6] it was 64%. For the same compound, the figures for the inhibition at 1 µM in experiment [7] (setting [10]), in experiment [8] and in experiment [9] were 95%, -6% and -1.05%, respectively.
As for `CCn1c(=O)c(-c2cc(NC(=O)Nc3ccccc3)c(F)cc2Br)cc2cnc(NC)cc21` [ripretinib], the inhibition at 1 µM in [1] is 20%; in experiment [2], 92%; in experiment [3] it was -5.68%; in [4], -8%; in experiment [5], -2.38%; in experiment [6], 12%. For the same compound, the results for the inhibition at 1 µM in experiment [7] (setting [10]), in experiment [8] and in experiment [9] were 5.66%, -0.94% and 0.278%, respectively.
`COc1ccc(CN2C3CC2CN(c2ccc(-c4cc(OCC(C)(C)O)cn5ncc(C#N)c45)cn2)C3)cn1` [selpercatinib]: the inhibition at 1 µM in [1] is -4.75%; in [2] it was 98%; in experiment [3] it was 5%; in [4], 8%; in experiment [5], 1.42%; in experiment [6], 56%. The inhibition at 1 µM in [7] (setting [10]) was 37%; in experiment [8], 2.44%; in [9] it was -2%.
Regarding `Cn1cnc2c(F)c(Nc3ccc(Br)cc3Cl)c(C(=O)NOCCO)cc21` [selumetinib], the inhibition at 1 µM in [1] was -2.33%; in experiment [2], -0.927%; in experiment [3], -2.71%; in experiment [4], -1.11%; in [5], -3.17%; in [6], 4.41%. Further, the results for the inhibition at 1 µM in experiment [7] (setting [10]), in [8] and in experiment [9] were 16%, -5.32% and -0.0396%, respectively.
Turning to `Cc1cc(Nc2ncnc3ccc(NC4=NC(C)(C)CO4)cc23)ccc1Oc1ccn2ncnc2c1` [tucatinib], the inhibition at 1 µM in experiment [1] is -2.49%; in experiment [2], 0.25%; in experiment [3], 4.63%; in experiment [4] it was 3.36%; in experiment [5], -1.89%; in [6] it was 2.84%. In addition, the figures for the inhibition at 1 µM in [7] (setting [10]), in [8] and in [9] were 18%, 1.14% and -0.857%, respectively.
Consider `C=CC(=O)N1CCC([C@@H]2CCNc3c(C(N)=O)c(-c4ccc(Oc5ccccc5)cc4)nn32)CC1` [zanubrutinib], for which the inhibition at 1 µM in [1] was -2.4%; in experiment [2], -2%; in [3] it was -2.53%; in [4], 2%; in [5], 5.39%; in experiment [6], -7%. The results for the inhibition at 1 µM in [7], in experiment [8] and in [9] were 96%, -2.31% and -4%, respectively.
